{"source": "paper PMC6704710", "about": "“Preclinical evaluation of 3D185, a novel potent inhibitor of FGFR1/2/3 and CSF-1R, in FGFR-dependent and macrophage-dominant cancer models” (Journal of Experimental & Clinical Cancer Research : CR, 2019)", "experiment_in_all_cases": "Eurofins kinase panel", "type_in_all_cases": "biochemical", "conditions_in_all_cases": "read-out: Inhibition rate (%)", "key": {"GCN2(h)": {"target": "T1, GCN2(h) (Homo sapiens, UniProt Q9P2K8)", "T1 construct": "purchased Eurofins (KinaseProfiler)", "T1 sequence (Q9P2K8 whole entry)": "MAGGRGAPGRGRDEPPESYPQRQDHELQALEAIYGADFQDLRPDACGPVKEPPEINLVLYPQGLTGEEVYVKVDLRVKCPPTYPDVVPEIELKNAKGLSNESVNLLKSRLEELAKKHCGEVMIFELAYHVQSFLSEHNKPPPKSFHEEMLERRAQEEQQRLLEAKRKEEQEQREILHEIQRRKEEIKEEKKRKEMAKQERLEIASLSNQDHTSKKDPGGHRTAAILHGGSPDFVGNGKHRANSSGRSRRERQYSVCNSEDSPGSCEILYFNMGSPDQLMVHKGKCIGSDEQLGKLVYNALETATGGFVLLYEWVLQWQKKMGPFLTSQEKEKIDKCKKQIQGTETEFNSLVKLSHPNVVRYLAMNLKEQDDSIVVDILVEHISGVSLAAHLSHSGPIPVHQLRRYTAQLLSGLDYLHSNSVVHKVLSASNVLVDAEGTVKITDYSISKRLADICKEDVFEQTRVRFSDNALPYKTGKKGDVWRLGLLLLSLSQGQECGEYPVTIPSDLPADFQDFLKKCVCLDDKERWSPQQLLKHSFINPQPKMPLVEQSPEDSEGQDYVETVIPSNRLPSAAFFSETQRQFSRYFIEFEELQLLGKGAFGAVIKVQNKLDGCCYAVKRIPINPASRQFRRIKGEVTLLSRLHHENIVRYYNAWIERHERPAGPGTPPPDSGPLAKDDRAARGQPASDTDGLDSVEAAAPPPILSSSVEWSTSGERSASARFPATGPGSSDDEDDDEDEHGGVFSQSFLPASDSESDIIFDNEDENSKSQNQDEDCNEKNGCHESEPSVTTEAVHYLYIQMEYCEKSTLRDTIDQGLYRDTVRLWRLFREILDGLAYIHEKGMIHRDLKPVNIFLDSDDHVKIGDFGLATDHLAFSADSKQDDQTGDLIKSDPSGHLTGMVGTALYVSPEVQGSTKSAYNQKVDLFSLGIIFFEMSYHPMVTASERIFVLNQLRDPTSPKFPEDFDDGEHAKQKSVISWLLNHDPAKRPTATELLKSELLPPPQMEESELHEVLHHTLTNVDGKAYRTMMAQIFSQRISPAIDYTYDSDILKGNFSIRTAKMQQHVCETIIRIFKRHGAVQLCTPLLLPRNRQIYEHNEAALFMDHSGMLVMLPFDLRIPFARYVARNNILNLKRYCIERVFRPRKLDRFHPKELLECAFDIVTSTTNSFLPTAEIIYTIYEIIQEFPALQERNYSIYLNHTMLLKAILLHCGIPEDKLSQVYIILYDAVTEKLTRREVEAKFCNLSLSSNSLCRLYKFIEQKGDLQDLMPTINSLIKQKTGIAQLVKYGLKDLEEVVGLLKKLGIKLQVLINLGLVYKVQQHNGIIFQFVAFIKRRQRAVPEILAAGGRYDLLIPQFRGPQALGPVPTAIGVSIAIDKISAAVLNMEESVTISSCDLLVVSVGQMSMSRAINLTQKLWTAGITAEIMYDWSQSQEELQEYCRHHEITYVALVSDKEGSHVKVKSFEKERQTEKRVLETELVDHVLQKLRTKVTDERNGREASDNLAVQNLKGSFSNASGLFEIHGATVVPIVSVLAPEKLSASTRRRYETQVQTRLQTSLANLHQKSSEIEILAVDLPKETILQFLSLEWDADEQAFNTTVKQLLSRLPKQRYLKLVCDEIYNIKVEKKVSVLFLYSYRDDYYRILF"}, "GRK5(h)": {"target": "T2, GRK5(h) (Homo sapiens, UniProt P34947)", "T2 construct": "purchased Eurofins (KinaseProfiler)", "T2 sequence (P34947 whole entry)": "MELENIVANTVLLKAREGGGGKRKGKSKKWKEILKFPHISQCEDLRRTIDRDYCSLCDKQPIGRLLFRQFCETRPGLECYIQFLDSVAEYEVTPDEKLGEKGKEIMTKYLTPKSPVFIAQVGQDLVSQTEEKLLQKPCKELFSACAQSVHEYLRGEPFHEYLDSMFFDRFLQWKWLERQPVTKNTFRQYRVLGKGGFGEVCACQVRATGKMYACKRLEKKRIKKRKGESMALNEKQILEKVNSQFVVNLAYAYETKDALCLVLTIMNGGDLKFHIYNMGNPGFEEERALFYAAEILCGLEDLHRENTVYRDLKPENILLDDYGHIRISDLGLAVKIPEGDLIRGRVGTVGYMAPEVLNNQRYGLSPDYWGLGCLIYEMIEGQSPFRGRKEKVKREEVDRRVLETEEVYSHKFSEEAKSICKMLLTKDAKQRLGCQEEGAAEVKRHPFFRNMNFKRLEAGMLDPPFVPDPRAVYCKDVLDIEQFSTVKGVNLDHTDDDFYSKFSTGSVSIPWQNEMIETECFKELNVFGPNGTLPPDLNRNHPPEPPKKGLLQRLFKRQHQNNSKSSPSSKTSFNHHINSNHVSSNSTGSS"}, "IR(h), activated": {"target": "T3, IR(h), activated (Homo sapiens, UniProt P06213)", "T3 construct": "purchased Eurofins (KinaseProfiler)", "T3 sequence (P06213 28-1382)": "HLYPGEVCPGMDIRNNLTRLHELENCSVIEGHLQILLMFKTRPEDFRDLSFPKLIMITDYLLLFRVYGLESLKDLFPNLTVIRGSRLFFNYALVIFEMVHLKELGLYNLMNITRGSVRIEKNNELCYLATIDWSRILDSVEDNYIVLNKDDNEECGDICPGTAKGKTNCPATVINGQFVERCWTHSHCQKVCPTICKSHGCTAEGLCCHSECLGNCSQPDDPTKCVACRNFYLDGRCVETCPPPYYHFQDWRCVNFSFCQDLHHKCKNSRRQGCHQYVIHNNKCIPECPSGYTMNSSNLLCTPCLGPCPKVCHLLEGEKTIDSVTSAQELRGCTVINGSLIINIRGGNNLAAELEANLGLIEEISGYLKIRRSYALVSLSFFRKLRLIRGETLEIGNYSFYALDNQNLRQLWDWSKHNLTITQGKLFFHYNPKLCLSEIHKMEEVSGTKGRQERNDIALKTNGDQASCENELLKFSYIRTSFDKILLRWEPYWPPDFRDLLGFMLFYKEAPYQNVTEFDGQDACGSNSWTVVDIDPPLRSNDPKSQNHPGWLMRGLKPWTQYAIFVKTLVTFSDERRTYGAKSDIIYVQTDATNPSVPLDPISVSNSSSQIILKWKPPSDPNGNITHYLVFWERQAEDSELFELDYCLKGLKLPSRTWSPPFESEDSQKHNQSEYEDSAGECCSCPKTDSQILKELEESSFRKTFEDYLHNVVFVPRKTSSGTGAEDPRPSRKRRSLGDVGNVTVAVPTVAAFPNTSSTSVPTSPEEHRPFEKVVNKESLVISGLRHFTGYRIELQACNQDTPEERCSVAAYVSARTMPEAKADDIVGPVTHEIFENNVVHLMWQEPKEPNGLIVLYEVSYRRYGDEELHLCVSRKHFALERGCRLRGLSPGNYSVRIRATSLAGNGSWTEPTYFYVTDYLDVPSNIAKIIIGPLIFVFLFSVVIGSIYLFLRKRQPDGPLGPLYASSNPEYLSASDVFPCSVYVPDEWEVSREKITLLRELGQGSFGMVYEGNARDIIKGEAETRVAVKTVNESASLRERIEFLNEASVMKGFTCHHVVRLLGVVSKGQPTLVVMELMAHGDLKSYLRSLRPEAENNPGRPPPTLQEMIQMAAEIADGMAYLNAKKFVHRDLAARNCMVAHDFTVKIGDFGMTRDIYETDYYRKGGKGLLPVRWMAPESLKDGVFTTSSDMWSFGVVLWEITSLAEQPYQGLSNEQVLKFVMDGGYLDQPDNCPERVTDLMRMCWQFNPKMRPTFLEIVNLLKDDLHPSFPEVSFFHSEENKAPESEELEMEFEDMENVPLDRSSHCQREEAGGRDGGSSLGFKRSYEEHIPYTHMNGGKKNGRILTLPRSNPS"}, "MAPKAP-K3(h)": {"target": "T4, MAPKAP-K3(h) (Homo sapiens, UniProt Q16644)", "T4 construct": "purchased Eurofins (KinaseProfiler)", "T4 sequence (Q16644 whole entry)": "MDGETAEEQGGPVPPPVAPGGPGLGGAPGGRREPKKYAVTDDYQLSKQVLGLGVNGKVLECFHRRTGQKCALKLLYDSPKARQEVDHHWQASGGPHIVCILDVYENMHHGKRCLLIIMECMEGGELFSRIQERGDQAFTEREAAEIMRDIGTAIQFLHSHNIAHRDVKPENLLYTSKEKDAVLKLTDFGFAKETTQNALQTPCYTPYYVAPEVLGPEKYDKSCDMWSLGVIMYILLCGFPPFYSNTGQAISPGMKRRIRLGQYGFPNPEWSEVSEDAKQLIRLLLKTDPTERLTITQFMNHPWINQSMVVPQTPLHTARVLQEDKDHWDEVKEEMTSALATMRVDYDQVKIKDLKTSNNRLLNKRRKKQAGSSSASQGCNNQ"}, "PI3KC2γ(h)": {"target": "T5, PI3KC2γ(h) (Homo sapiens, UniProt O75747)", "T5 construct": "purchased Eurofins (KinaseProfiler)", "T5 sequence (O75747 1-1486)": "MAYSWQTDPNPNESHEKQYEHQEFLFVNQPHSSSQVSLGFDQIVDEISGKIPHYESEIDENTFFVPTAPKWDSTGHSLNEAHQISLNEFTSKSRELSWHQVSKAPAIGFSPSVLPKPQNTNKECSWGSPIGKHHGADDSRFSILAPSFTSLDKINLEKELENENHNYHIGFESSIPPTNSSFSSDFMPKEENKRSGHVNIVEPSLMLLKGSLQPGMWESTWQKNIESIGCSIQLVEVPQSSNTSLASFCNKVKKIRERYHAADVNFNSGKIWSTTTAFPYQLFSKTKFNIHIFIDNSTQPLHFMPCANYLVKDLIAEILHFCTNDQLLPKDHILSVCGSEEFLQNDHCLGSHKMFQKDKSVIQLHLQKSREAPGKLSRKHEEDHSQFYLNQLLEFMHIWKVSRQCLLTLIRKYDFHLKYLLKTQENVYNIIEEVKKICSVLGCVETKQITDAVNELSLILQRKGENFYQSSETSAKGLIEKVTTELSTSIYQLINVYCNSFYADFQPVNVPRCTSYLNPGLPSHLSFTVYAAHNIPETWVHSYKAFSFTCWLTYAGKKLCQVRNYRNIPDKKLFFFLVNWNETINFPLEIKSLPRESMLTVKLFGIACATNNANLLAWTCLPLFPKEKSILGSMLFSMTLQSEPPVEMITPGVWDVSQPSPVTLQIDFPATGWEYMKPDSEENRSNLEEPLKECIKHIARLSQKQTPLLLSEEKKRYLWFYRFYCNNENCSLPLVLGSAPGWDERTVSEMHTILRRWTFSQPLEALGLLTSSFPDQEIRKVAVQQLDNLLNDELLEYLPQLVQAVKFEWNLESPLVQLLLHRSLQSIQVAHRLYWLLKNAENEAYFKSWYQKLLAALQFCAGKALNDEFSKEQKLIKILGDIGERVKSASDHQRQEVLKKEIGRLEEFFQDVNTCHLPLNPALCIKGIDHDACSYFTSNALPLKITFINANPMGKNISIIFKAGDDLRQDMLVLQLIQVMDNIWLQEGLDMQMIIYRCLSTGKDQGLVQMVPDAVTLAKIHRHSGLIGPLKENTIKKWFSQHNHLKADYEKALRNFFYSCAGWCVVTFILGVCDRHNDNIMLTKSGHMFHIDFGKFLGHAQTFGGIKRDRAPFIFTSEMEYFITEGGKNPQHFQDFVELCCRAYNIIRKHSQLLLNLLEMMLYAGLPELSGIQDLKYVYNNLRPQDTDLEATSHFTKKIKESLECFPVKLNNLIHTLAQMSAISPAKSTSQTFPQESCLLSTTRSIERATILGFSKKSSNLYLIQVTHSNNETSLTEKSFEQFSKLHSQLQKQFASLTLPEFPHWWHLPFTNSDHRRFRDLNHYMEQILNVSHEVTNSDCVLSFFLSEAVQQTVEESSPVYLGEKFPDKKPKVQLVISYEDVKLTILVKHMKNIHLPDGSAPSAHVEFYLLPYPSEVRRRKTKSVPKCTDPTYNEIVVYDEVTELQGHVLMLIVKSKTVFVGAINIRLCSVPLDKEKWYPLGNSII"}, "Ros(h)": {"target": "T6, Ros(h) (Homo sapiens, UniProt P08922)", "T6 construct": "purchased Eurofins (KinaseProfiler)"}, "Txk(h)": {"target": "T7, Txk(h) (Homo sapiens, UniProt P42681)", "T7 construct": "purchased Eurofins (KinaseProfiler)", "T7 sequence (P42681 1-527)": "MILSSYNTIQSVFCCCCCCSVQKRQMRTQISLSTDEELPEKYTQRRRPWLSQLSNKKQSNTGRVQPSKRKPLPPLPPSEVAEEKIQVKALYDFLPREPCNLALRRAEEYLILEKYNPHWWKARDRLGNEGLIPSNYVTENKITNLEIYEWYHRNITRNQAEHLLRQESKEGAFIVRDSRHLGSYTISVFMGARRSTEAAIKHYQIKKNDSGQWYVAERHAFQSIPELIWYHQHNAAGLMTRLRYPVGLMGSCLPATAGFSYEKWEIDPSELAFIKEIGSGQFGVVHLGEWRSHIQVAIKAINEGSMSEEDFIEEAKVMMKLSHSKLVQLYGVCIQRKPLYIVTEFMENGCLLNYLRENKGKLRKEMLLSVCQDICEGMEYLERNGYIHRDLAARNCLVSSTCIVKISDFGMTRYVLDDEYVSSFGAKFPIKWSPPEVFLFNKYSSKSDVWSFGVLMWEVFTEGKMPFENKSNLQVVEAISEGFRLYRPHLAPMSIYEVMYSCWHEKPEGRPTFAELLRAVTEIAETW"}, "mTOR/FKBP12(h)": {"target": "T8, mTOR/FKBP12(h) (Homo sapiens, UniProt P42345)", "T8 construct": "purchased Eurofins (KinaseProfiler)"}, "p70S6K(h)": {"target": "T9, p70S6K(h) (Homo sapiens, UniProt P23443)", "T9 construct": "purchased Eurofins (KinaseProfiler)", "T9 sequence (P23443 whole entry)": "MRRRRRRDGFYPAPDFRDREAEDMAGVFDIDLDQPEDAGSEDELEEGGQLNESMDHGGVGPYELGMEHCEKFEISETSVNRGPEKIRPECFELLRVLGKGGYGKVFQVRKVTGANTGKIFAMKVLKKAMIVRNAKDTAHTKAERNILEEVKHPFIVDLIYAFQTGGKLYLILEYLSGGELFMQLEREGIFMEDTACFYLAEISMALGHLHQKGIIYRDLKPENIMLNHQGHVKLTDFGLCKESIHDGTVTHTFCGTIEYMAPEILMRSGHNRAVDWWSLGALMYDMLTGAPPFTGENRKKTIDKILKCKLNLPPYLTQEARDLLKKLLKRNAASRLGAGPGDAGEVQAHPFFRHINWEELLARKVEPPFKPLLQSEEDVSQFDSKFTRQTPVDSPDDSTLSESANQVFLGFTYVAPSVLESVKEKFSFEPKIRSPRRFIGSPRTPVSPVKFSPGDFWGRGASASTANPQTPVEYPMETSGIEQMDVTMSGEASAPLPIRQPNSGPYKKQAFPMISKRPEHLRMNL"}}, "data": [{"smiles": "COc1cc(OC)c(Cl)c(-c2ccc3c(NC(=O)c4ccc(N5CCNC(C)(C)C5)cc4)n[nH]c3n2)c1Cl", "note": "[3D185]", "values": [{"measurement": "inhibition at 0.01 µM", "setting": "GCN2(h); 10 nM", "result": 3, "unit": "%"}, {"measurement": "inhibition at 0.1 µM", "setting": "GCN2(h); 100 nM", "result": -12, "unit": "%"}, {"measurement": "inhibition at 1 µM", "setting": "GCN2(h); 1000 nM", "result": -49, "unit": "%"}, {"measurement": "inhibition at 0.01 µM", "setting": "GRK5(h); 10 nM", "result": -1, "unit": "%"}, {"measurement": "inhibition at 0.1 µM", "setting": "GRK5(h); 100 nM", "result": -9, "unit": "%"}, {"measurement": "inhibition at 1 µM", "setting": "GRK5(h); 1000 nM", "result": 3, "unit": "%"}, {"measurement": "inhibition at 0.01 µM", "setting": "IR(h), activated; 10 nM", "result": 9, "unit": "%"}, {"measurement": "inhibition at 0.1 µM", "setting": "IR(h), activated; 100 nM", "result": 42, "unit": "%"}, {"measurement": "inhibition at 1 µM", "setting": "IR(h), activated; 1000 nM", "result": 85, "unit": "%"}, {"measurement": "inhibition at 0.01 µM", "setting": "MAPKAP-K3(h); 10 nM", "result": 8, "unit": "%"}, {"measurement": "inhibition at 0.1 µM", "setting": "MAPKAP-K3(h); 100 nM", "result": 17, "unit": "%"}, {"measurement": "inhibition at 1 µM", "setting": "MAPKAP-K3(h); 1000 nM", "result": 19, "unit": "%"}, {"measurement": "inhibition at 0.01 µM", "setting": "PI3KC2γ(h); 10 nM", "result": -4, "unit": "%"}, {"measurement": "inhibition at 0.1 µM", "setting": "PI3KC2γ(h); 100 nM", "result": -4, "unit": "%"}, {"measurement": "inhibition at 1 µM", "setting": "PI3KC2γ(h); 1000 nM", "result": 1, "unit": "%"}, {"measurement": "inhibition at 0.01 µM", "setting": "Ros(h); 10 nM", "result": -4, "unit": "%"}, {"measurement": "inhibition at 0.1 µM", "setting": "Ros(h); 100 nM", "result": 6, "unit": "%"}, {"measurement": "inhibition at 1 µM", "setting": "Ros(h); 1000 nM", "result": 17, "unit": "%"}, {"measurement": "inhibition at 0.01 µM", "setting": "Txk(h); 10 nM", "result": 18, "unit": "%"}, {"measurement": "inhibition at 0.1 µM", "setting": "Txk(h); 100 nM", "result": 27, "unit": "%"}, {"measurement": "inhibition at 1 µM", "setting": "Txk(h); 1000 nM", "result": 49, "unit": "%"}, {"measurement": "inhibition at 0.01 µM", "setting": "mTOR/FKBP12(h); 10 nM", "result": 1, "unit": "%"}, {"measurement": "inhibition at 0.1 µM", "setting": "mTOR/FKBP12(h); 100 nM", "result": 0, "unit": "%"}, {"measurement": "inhibition at 1 µM", "setting": "mTOR/FKBP12(h); 1000 nM", "result": 2, "unit": "%"}, {"measurement": "inhibition at 0.01 µM", "setting": "p70S6K(h); 10 nM", "result": -4, "unit": "%"}, {"measurement": "inhibition at 0.1 µM", "setting": "p70S6K(h); 100 nM", "result": -9, "unit": "%"}, {"measurement": "inhibition at 1 µM", "setting": "p70S6K(h); 1000 nM", "result": -1, "unit": "%"}]}]}
